From paper PMC7074965, “Discovery of Two Brominated Oxindole Alkaloids as Staphylococcal DNA Gyrase and Pyruvate Kinase Inhibitors via Inverse Virtual Screening” (Microorganisms, 2020) come the findings set out here.

This experiment deals with T1, Topo IV from S. aureus (ParE) (Staphylococcus aureus, UniProt P0C1S7).
T1 construct: purchased Inspiralis
The experiment in a line: Topoisomerase IV inhibitory assay (Inspiralis kit). As to conditions: staphylococcal Topo IV (ParE), mean of three experiments ± S.D. The class given is biochemical. Here is the method:
DNA gyrase (type II topoisomerase) and topoisomerase IV (Topo IV; ParE) introduce negative supercoils into DNA, utilizing ATP hydrolysis as a source of energy. They are considered essential bacterial regulatory enzymes that are absent in eukaryotes. Gyrase subunit B (Gyr-B) and Topo IV inhibitory activities were determined using the Inspiralis assay kit (Inspiralis®, UK) on streptavidin-coated 96-well microtiter plates (Thermo Scientific, Germany) according to the manufacturer’s protocols. The assay measures the ability of the tested compounds to inhibit the ATPase activity of both Gyr-B and ParE subunits. Briefly, the plates were hydrated with buffer (20 mM Tris-HCl with pH 7.6, 0.01% w/v BSA, 0.05% v/v Tween 20, 137 mM NaCl) and the biotinylated oligonucleotide was then immobilized. […] The produced fluorescence was measured using a microplate reader (BioTek Synergy, excitation: 485 nm, emission: 535 nm, Germany). […] The PK inhibitory activity of the tested compounds was determined according to the previously reported method. […] The PK activity was measured in a continuous assay coupled to lactate dehydrogenase (LDH) in which the change in absorbance at 340 nm owing to the oxidation of NADH was measured by the microplate reader. […] IC50 values in both assays were determined using seven concentrations of tested compounds. […]

The term IC50 denotes the concentration that inhibits the measured activity by half.

T1 sequence (P0C1S7 whole entry): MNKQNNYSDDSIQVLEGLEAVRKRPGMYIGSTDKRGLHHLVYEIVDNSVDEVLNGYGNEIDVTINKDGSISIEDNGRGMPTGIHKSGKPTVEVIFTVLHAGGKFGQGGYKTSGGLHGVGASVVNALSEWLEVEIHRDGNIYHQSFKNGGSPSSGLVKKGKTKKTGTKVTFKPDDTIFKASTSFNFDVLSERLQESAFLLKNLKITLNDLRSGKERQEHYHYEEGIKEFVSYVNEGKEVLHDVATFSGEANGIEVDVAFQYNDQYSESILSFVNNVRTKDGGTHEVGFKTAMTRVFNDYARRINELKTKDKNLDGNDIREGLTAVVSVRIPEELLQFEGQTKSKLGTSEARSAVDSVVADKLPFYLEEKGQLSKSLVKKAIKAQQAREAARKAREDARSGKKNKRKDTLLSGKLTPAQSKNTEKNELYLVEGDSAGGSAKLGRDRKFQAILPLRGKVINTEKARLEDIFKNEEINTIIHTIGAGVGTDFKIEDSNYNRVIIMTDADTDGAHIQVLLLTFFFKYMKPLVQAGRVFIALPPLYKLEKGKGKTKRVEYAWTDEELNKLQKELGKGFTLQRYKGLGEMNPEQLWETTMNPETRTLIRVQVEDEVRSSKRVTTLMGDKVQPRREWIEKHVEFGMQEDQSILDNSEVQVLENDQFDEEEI
T1 sequence (P0C1U9 whole entry partner): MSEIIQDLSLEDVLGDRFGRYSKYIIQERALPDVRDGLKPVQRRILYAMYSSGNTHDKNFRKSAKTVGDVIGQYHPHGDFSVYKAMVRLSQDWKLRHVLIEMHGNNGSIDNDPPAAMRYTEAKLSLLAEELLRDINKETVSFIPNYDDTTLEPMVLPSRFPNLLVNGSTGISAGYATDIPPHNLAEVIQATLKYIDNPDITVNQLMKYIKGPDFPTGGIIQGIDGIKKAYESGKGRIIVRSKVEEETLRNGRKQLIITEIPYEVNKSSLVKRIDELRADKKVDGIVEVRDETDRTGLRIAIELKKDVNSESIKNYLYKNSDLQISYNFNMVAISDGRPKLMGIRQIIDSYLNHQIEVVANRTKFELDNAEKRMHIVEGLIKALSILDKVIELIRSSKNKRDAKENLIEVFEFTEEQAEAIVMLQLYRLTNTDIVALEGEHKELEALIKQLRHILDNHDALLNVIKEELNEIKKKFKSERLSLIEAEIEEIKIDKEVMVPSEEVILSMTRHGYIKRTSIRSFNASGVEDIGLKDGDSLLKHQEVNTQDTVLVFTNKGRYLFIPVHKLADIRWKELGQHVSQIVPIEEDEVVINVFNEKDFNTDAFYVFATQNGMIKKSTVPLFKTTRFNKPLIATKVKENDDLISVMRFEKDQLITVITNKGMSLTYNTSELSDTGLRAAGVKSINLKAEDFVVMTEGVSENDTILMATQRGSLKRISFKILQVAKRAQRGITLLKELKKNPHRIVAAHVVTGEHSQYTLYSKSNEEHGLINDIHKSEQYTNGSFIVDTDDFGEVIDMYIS

As for `CO[C@@H]1[C@@H](OC(N)=O)[C@@H](O)[C@H](Oc2ccc3c(O)c(NC(=O)c4ccc(O)c(CC=C(C)C)c4)c(=O)oc3c2C)OC1(C)C` [Novobiocin], the IC50 was 0.22 ± 0.01 µM.
